Usually IC50 stands for the midpoint of a concentration-inhibition curve. A lower IC50 goes with greater potency.

What all share (assay): biochemical
One assay deals with DR1 (DRB1*0101) (Homo sapiens, UniProt P01903+P01911, A100R/D57E/F55L/F60I/F76Y/I96L/L162R/M171V/P40L/Q125E/R42F/V115G/Y59C). It counts as binding.
For the next assay, the target named is DR4w4 (DRB1*0401) (Homo sapiens, UniProt P01903+P01911, A100K/A169T/F76Y/I96L/K127E/L162R/M171V/N62H/P40V/Q125Y/R42H/S133A/S149N/S66Y/V115G/V209L/W38E). It counts as binding.
The next assay addresses DR7 (DRB1*0701) (Homo sapiens, UniProt P01903+P01911, A100R/A102G/A103Q/D57E/D86V/E43K/F76Y/K127E/L162R/M171V/P40G/Q125H/Q99D/R33Q/R42Y/R54Q/S133A/S66F/T210M/V115G/Y107V/Y59L/Y89S). Type of assay: binding.
The target of another assay is DRB1*0301 (Homo sapiens, UniProt P01903+P01911, A100K/A102G/A103R/A169T/F55Y/I96L/K41T/L162R/M171V/P40S/Q125H/Q178H/Q39Y/R42S/S66N/T106N/T262R/W38E/Y61H). Type of assay: binding.
DRB1*0301, sequence (P01903 26-254 limits assumed, other chains not shown): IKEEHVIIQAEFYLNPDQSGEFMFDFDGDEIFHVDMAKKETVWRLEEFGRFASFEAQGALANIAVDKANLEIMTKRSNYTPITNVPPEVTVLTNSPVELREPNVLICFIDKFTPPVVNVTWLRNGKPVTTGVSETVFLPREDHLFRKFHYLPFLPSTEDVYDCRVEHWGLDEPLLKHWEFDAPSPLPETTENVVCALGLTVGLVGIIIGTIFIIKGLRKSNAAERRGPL
A further assay concerns the target DRB1*0405 (Homo sapiens, UniProt P01903+P01911, A100R/A169T/D86S/F76Y/I96L/K127E/L162R/M171V/N62H/P40V/Q125Y/R42H/S133A/S149N/S66Y/V115G/V209L/W38E). Type of assay: binding.
In the next assay the target is DRB1*0802 (Homo sapiens, UniProt P01903+P01911, A100R/A103L/A169T/F76Y/H45Y/I96F/K41T/L162R/M171V/P40S/Q125H/Q178H/Q39Y/Q99D/R218S/R42G/S66Y/V115G/W38E). Type of assay: binding.
The next assay addresses DRB1*0901 (Homo sapiens, UniProt P01903+P01911, A100R/A103E/D57H/D86V/F55Y/F60I/F76Y/I96F/K127E/L162R/M171V/P40D/Q125H/Q99R/R33Q/R42F/S133A/S66N/T210M/V115G/W38K/Y107V/Y59G/Y89S). Type of assay: binding.
A further assay concerns the target DRB1*1201 (Homo sapiens, UniProt P01903+P01911, A100R/A169T/D57E/D86V/F55L/H45Y/K41T/L162R/M171V/P40S/Q125H/Q178H/Q39Y/Q99D/R42G/S66L/T262R/V114A/V67L/W38E/Y59H/Y61H/Y89S). It counts as binding.
Another assay addresses DRB1*1302 (Homo sapiens, UniProt P01903+P01911, A100E/A169T/K41T/L162R/M171V/P40S/Q125H/Q178H/Q39Y/Q99D/R42S/S66N/T262R/V115G/W38E/Y61H). Type of assay: binding.
In another assay the target is DRB1*1501 (Homo sapiens, UniProt P01903+P01911). Type of assay: binding.
A further assay has as its target DRB4*0101 (Homo sapiens, UniProt P01903+P13762, G164S). It counts as binding.
The target in a further assay is DRB5*0101 (Homo sapiens, UniProt P01903+Q30154). Particulars: Binding affinity DRB5 *0101.
A further assay has as its target DRB1*1101 (Homo sapiens, UniProt P01903+P01911, A100R/A169T/A87E/I96F/K41T/L162R/M171V/P40S/Q125H/Q178H/Q39Y/Q99D/R42S/S66Y/T262R/V115G/W38E). Particulars: Binding affinity DRB1 *1101.

No end group written: not given here.

DRB1*1302, sequence (P01903 26-254 limits assumed, other chains not shown): as above
DRB1*1101, sequence (P01903 26-254 limits assumed, other chains not shown): as above

In the case of IVHLKGDPNSLKCLR [Peptide 90.0255], the IC50 was 229 nM against DR1 (DRB1*0101); 83 nM at DR4w4 (DRB1*0401); more than 20000 nM on DR7 (DRB1*0701); 42 nM at DRB1*0301; more than 20000 nM at DRB1*0405; 2210 nM at DRB1*0802. Also, the IC50 against DRB1*0901 was more than 20000 nM; against DRB1*1201, 4650 nM; against DRB1*1302, 574 nM; on DRB1*1501 it was 7830 nM; against DRB4*0101, 1590 nM; on DRB5*0101, 2560 nM.

As for `CC[C@H](C)[C@H](N)C(=O)N[C@@H](CCC(=O)O)C(=O)N[C@@H](Cc1ccccc1)C(=O)N[C@H](C(=O)N[C@H](C(=O)N[C@@H](Cc1ccccc1)C(=O)N[C@@H](CC(C)C)C(=O)NCC(=O)N[C@@H](C)C(=O)N[C@@H](CC(C)C)C(=O)N[C@@H](CCCCN)C(=O)N[C@@H](CO)C(=O)N[C@@H](Cc1ccccc1)C(=O)N[C@@H](CC(C)C)C(=O)N[C@@H](CCCCN)C(=O)O)[C@@H](C)O)[C@@H](C)CC` [Peptide 89.0033], the IC50 was 8.6 nM against DR1 (DRB1*0101); 74 nM against DR4w4 (DRB1*0401); 410 nM against DR7 (DRB1*0701); 2300 nM against DRB1*0301; 1640 nM at DRB1*0405; 410 nM at DRB1*1201. The IC50 on DRB1*1302 is more than 20000 nM; against DRB1*1501 it was 77 nM; against DRB4*0101 it was 44 nM; on DRB5*0101, 34 nM.

Take DWVMAIFGVNPTVAE [Peptide 89.0079]: the IC50 came to 58 nM at DR1 (DRB1*0101); 45 nM at DR4w4 (DRB1*0401); 108 nM on DR7 (DRB1*0701); 431 nM against DRB1*0301; 85 nM against DRB1*0405; 6720 nM on DRB1*0802. Further, the IC50 on DRB1*0901 is 1620 nM; against DRB1*1201, 430 nM; against DRB1*1302 it was 60 nM; on DRB1*1501 it was 26 nM; at DRB4*0101, 6.5 nM; on DRB1*1101 it was 1820 nM.

For the compound LKAICIENNSKTAKR [Peptide 90.0064], the IC50 against DR1 (DRB1*0101) was 62 nM; at DR4w4 (DRB1*0401) it was 36 nM; against DR7 (DRB1*0701), 6350 nM; against DRB1*0301, 86 nM; on DRB1*0405, 369 nM; against DRB1*0901 it was more than 20000 nM. Further, the IC50 amounted to 4580 nM on DRB1*1201, 144 nM against DRB1*1302, 359 nM against DRB1*1501 and 85 nM on DRB4*0101.

In the case of `CC[C@H](C)[C@H](NC(=O)[C@H](Cc1c[nH]c2ccccc12)NC(=O)[C@H](CCC(=O)O)NC(=O)[C@@H]1CCCN1)C(=O)N[C@@H](CCC(N)=O)C(=O)N[C@@H](CCCNC(=N)N)C(=O)N[C@@H](CCC(N)=O)C(=O)N[C@H](C(=O)N[C@H](C(=O)N[C@@H](CC(C)C)C(=O)N[C@@H](CCC(N)=O)C(=O)N[C@@H](Cc1c[nH]cn1)C(=O)N[C@@H](CO)C(=O)N[C@@H](Cc1ccccc1)C(=O)N[C@@H](CC(N)=O)C(=O)O)C(C)C)[C@@H](C)O` [Peptide 89.0011], the IC50 at DR1 (DRB1*0101) came to 2260 nM; against DR4w4 (DRB1*0401), 18 nM; against DR7 (DRB1*0701), 6120 nM; against DRB1*0301, 155 nM; on DRB1*0405 it was 259 nM; on DRB1*0802, 213 nM. The IC50 against DRB1*0901 was 6180 nM; at DRB1*1201, 4020 nM; on DRB1*1302 it was 473 nM; against DRB1*1501, 8860 nM; against DRB4*0101, 4.5 nM; at DRB5*0101, 11800 nM.

With RGIIILLLIRFRCSK [Peptide 89.0063], the IC50 against DR1 (DRB1*0101) was 674 nM; on DR4w4 (DRB1*0401), 883 nM; against DR7 (DRB1*0701), 721 nM; on DRB1*0301, more than 20000 nM; against DRB1*0405, 241 nM; against DRB1*0802, 6420 nM. In addition, the IC50 is more than 20000 nM at DRB1*0901; 2010 nM against DRB1*1201; 352 nM at DRB1*1302; 431 nM against DRB1*1501; 283 nM at DRB4*0101; more than 20000 nM at DRB5*0101.

Consider DHDITDDSDIAYKYA [Peptide 90.0117], for which the IC50 was more than 20000 nM on DR1 (DRB1*0101); 510 nM against DR4w4 (DRB1*0401); more than 20000 nM at DR7 (DRB1*0701); 100 nM against DRB1*0301; 2210 nM against DRB1*0405; more than 20000 nM at DRB1*0802. Also, the IC50 was more than 20000 nM on DRB1*1201; 535 nM at DRB1*1302; more than 20000 nM on DRB1*1501; 577 nM at DRB4*0101; more than 20000 nM on DRB1*1101; 6830 nM at DRB5*0101.

In the case of IHFLQGAIISFVNSN [Peptide 89.0089], the IC50 on DR1 (DRB1*0101) is 4.2 nM; on DR4w4 (DRB1*0401) it was 499 nM; at DR7 (DRB1*0701), 1020 nM; against DRB1*0301, more than 20000 nM; at DRB1*0405, 2610 nM; against DRB1*0802 it was 1900 nM. The IC50 against DRB1*1201 is 71 nM; on DRB1*1302, 442 nM; against DRB1*1501, 54 nM; against DRB4*0101, 272 nM; on DRB5*0101, more than 20000 nM.

As to YFKYFKEDAAKYSKT [Peptide 90.0205], the IC50 is 70 nM against DR4w4 (DRB1*0401); 3630 nM against DR7 (DRB1*0701); 483 nM against DRB1*0301; more than 20000 nM at DRB1*0405; 6030 nM against DRB1*0802; 8050 nM against DRB1*1201. Also, the IC50 against DRB1*1302 is more than 20000 nM; at DRB1*1501 it was 3910 nM; at DRB4*0101, more than 20000 nM; on DRB1*1101, 1890 nM; on DRB5*0101 it was 4660 nM.

Regarding VDFIDTQLSICEQAE [Peptide 89.0078], the 50% inhibitory concentration (IC50) worked out at 1280 nM against DR4w4 (DRB1*0401); 426 nM against DR7 (DRB1*0701); 3780 nM against DRB1*0301; 284 nM against DRB1*0405; 7430 nM at DRB1*0802; 6000 nM on DRB1*0901. For the same compound, the IC50 came to 2020 nM against DRB1*1201; 1550 nM at DRB1*1302; 609 nM against DRB1*1501; 471 nM on DRB4*0101; 3920 nM at DRB1*1101; 1520 nM on DRB5*0101.

Take LKVLIKQHSLYTHLQ [Peptide 89.0061]: the IC50 is 4.3 nM against DR1 (DRB1*0101); 17 nM against DR4w4 (DRB1*0401); 451 nM against DR7 (DRB1*0701); 1830 nM against DRB1*0301; 687 nM against DRB1*0405; 57 nM on DRB1*0802. Moreover, the IC50 came out at 33 nM against DRB1*1201; 30 nM on DRB1*1302; 18 nM against DRB1*1501; 11 nM on DRB4*0101; 43 nM at DRB1*1101.

With VEFMSFLTALKRFLQ [Peptide 89.0015], the IC50 came to 19 nM at DR1 (DRB1*0101); 72 nM at DR4w4 (DRB1*0401); 109 nM on DR7 (DRB1*0701); 347 nM at DRB1*0301; 453 nM against DRB1*0405; 102 nM at DRB1*0802. Besides, the concentration for half-maximal inhibition (IC50) at DRB1*1201 stood at 91 nM; at DRB1*1302 it was 9820 nM; on DRB1*1501, 1840 nM; against DRB4*0101, 42 nM; at DRB1*1101 it was 44 nM; at DRB5*0101, 19 nM.

Regarding YFKYFKEDAKKYSKT [Peptide 90.0253], the IC50 on DR1 (DRB1*0101) was 4010 nM; against DR4w4 (DRB1*0401) it was 3620 nM; against DR7 (DRB1*0701) it was more than 20000 nM; against DRB1*0301, 108 nM; on DRB1*0405, more than 20000 nM; against DRB1*0901 it was more than 20000 nM. For the same compound, the IC50 on DRB1*1201 is more than 20000 nM; against DRB1*1302, more than 20000 nM; against DRB1*1501, more than 20000 nM; on DRB4*0101, more than 20000 nM; on DRB5*0101 it was 289 nM.

For the origin of these results see patent US9340577B2, “HLA binding motifs and peptides and their uses” (priority 1992, dated 2016).
